The text below walks through data of patent US20080199438A1, “Methods For Suppressing Tumor Proliferation” (DNAVEC RESEARCH INC., priority 2004, published 2008).

What all share (type): cell-based, human
The test system of experiment [1] is MRC5 cells. Description: FGF-2-mediated secretion of VEGF and HGF with signal transduction inhibitors or neutralizing antibody, ELISA. The note with it: MRC5, 10 ng/ml FGF-2, 72 hours; rapamycin 100 ng/ml, U0126 10 μmol/L, Ras-inhibitory peptide 50 μmol/L. The procedure:
(A) Effect of various inhibitors of intracellular signal transduction pathways upon the secretion of VEGF and HGF in MRC5 cells. After 48 hours of preincubation in the presence of 1% FBS, cells were stimulated with 10 ng/ml of human recombinant FGF-2 in the presence or absence of various inhibitors. After 72 hours, the medium was subjected to ELISA. n=3 in each group. *P<0.01.
(C) Increases in FGF-2-mediated VEGF secretion completely depend on PDGFRα. After 48 hours of preincubation in the presence of 1% FBS, MRC5 cells were stimulated with 10 ng/ml of recombinant human FGF-2 in the presence or absence of an anti-PDGFRα neutralizing antibody. After 72 hours, the medium was subjected to ELISA. Similar results were obtained for the expression of HGF (data not shown). *P<0.01.
HSMC (J. Cell Biol., 50: 172-86 (1971)), MRC-5 (ATCC CCL-171), SAS (J. Biol. Chem., 270 (41): 24321-69 (1995)), MH134 (J. Natl. Cancer Inst., 17: 1-21 (1956)), QG56 (Int. J. Cancer, 35 (6): 808-12 (1985)), TF (Cancer, 69 (10): 2589-97 (1992)), KN (Cancer, 69 (10): 2589-97 (1992)), EBC-1 (Am. J. Pathol., 142 (2): 425-31 (1993)), PC9 (Int. J. Cancer, 15 (4): 449-55 (1985)), and COS7 Cells (ATCC CRL-1651) were purchased from American Type Culture Collection (ATCC). As mentioned previously, the intracellular signal inhibitors below were each used at the following concentrations for HSMC and MRC5 cells (Onimaru M et al., Circ Res. 91: 723-730 (2002)): Ras, Ras-inhibitory peptide (50 μmol/L, Alexis Japan, Tokyo, Japan); p70S6K, p70S6K inhibitor rapamycin (100 ng/ml, Sigma-Aldrich Japan, Tokyo, Japan); PKC, PKC inhibitor bisindolylmaleimide (100 nmol/L, Sigma); PI3K, PI3K-inhibitor wortmannin (120 nmol/L, Sigma); MEK inhibitor U0126 (10 μmol/L, Promega K.K., Tokyo, Japan); PKA, PKA-inhibitory peptide (1 μmol/L, Calbiochem, San Diego, Calif.); and […], NF-κB inhibitor ALLN (5 μmol/L, Roche Diagnostics, Tokyo, Japan).
(§1) As mentioned previously (Masaki I et al., Circ Res. 90: 966-973 (2002); Onimaru M et al., Circ Res. 91: 723-730 (2002)), the protein contents of the mouse limb muscle, tumor, and culture medium were determined using Quantikine Immunoassay systems for mice (both the 164 and 220 amino acid residue forms are recognized) and human VEGF-A, human FGF-2 (available to both human and mouse), human HGF (R&D Systems Inc., Minneapolis, Minn.), and rat HGF (available to mouse HGF; Institute of Immunology Inc., Tokyo, Japan), according to the manufacturer's instructions.

Experiment [2] concerns MRC5 cells. Nature of the experiment: VEGF secretion after stimulation with FGF-2 and/or PDGF-AA, ELISA of culture medium. The note with it: MRC5, serum-free, 72 hours. The procedure:
(§2) (A) Recombinant FGF-2 and PDGF-AA work together to increase VEGF secretion from fibroblasts (MRC5) and vascular smooth muscle cells (HSMCs). After 48 hours of preincubation in serum-free conditions, each of the cell lines was stimulated with FGF-2 and/or PDGF-AA. After 72 hours, the cultured medium was subjected to ELISA. n3 in each group. *P<0.01. #P<0.05
as §1
(§3) To assess the role of the PDGF-AA signal in the angiogenic response of host vasculature, the FGF-2-mediated induction of VEGF and HGF in human mesenchymal cells (MRC5 and HSMC) cultured under serum-free conditions was investigated. […] In clinical application such as ischemia treatments, angiogenesis might also be induced more effectively by administering both FGF-2 and PDGF-AA, rather than either one alone.

Experiment [3] concerns MRC5 cells. Nature of the experiment: Northern blot time course of FGF-2-mediated VEGF mRNA expression. Particulars: MRC5, 10 ng/ml FGF-2, Northern blot. As for the experimental part:
(B) A p70S6K inhibitor, Rapamycin (RAPA) stops the later phase of FGF-2-mediated VEGF mRNA expression in MRC5 cells. After 48 hours of preincubation in the presence of 1% FBS, cells were stimulated with 10 ng/ml of recombinant human FGF-2. Cells were harvested at the time indicated in the figure and then subjected to Northern blot analysis. The bands were visualized and subjected to densitometric analysis using a photoimager.
(§4) Total cellular RNA, isolated using the ISOGEN system (Wako Pure Chemicals, Osaka, Japan), was electrophoresed and transferred onto a nylon membrane. The membranes were hybridized overnight at 60° C. with random-primed [α-^32P]dCTP-labeled probes. The bands were visualized and subjected to densitometry using a photoimager.

Experiment [4] relates to HSMC. Nature of the experiment: Northern blot of receptor mRNA after growth factor stimulation. The procedure: (§5) (B) A time course of FGF-2-mediated expression of PDGFRα mRNA in MRC5 cells and HSMCs was analyzed by Northern blotting. After 48 hours of preincubation under serum-free conditions, each of the cell lines was stimulated with FGF-2. Cells were harvested at the time indicated in the figure and then subjected to Northern blot analysis. Bands were visualized and subjected to densitometric analysis using a photoimager. The experience was carried out in duplicate and similar results were obtained.
as §4, §3

Experiment [5] has as its system MRC5 cells. The description is as above. The procedure: as §5, §4, §3
In experiment [6] the test system is HSMC. Nature of the experiment: VEGF secretion after stimulation with FGF-2 and/or PDGF-AA, ELISA of culture medium. The note with it: serum-free, 72 hours. As for the experimental part: as §2, §1, §3

As for `N#CC(=C(/N)Sc1ccccc1N)/C(C#N)=C(\N)Sc1ccccc1N` [MEK inhibitor, U0126, reference compound], in the experiment with MRC5 cells [1], the “FGF-2-mediated upregulation of HGF/SF protein” value is “removed these effects” and the “FGF-2-mediated upregulation of VEGF protein” value is on record as “removed these effects”.

For the molecule “FGF-2: human recombinant fibroblast growth factor-2 used to stimulate cells”, in the experiment on MRC5 cells [2], the “release of VEGF into the culture medium” value is given as “stimulated release of VEGF”. In the experiment on MRC5 cells [1], the “FGF-2-mediated upregulation of HGF/SF protein” value is recorded as “upregulated” and the “FGF-2-mediated upregulation of VEGF protein” value is “upregulated”. Further, in the experiment with MRC5 cells [3], the “time course of FGF-2-mediated VEGF expression” value was “biphasic (at three hours and after that) upregulation”. The PDGFRα transcription entry in the experiment on HSMC [4] is “upregulation”. Besides, in the experiment with MRC5 cells [5] (MRC5, Northern blot), the PDGFRα transcription result was “upregulation”.

As for “PDGF-AA: recombinant PDGF-A homodimer used to stimulate cells”, the “level of VEGF in the culture medium” value in the experiment on HSMC [6] was “upregulated”. The “release of VEGF into the culture medium” value with MRC5 cells [2] is recorded as “did not”. In addition, in the experiment with MRC5 cells [5] (data not shown), the FGFR1 expression entry was “did not change”.
